Paper PMC6761804 (ACS Omega, 2019)

Tested on: colorectal tumor of Apc^min/+ genetically engineered CRC mouse
Format: in vivo, Apc^min/+ mice
Conditions: i.v. about 3.7 MBq, PET/CT after 1 h (Figure S4)

Structure (SMILES): OC[C@H]1OC(O)[C@H](F)[C@@H](O)[C@@H]1O (stereo partly shown) [^18F-FDG, ^18F-Fluorodeoxyglucose, reference compound]
- Tumor enrichment in PET/CT (in words): did not show ideal tumor enrichment
